According to patent US9334268B2, “4-amino-imidazoquinoline compounds” (Hoffmann-La Roche Inc., priority 2014, dated 2016):
Where a name gives a salt, the structure may show the parent alone.

Columns and labels:
human TLR7 = human TLR7 (Homo sapiens (Human), UniProt Q9NYK1); test: HEK-Blue human TLR7 SEAP reporter assay; format: cell-based; details: for EC50: HEK-Blue human TLR7 cells, NF-κB-regulated SEAP reporter, stimulation for 24 hr
Procedure: (§1) For TLR8 and TLR7 activity testing, HEK-Blue human TLR8 or TLR7 cells, respectively, (Invivogen, San Diego, Calif., USA) transfected with a SEAP reporter (secreted embryonic alkaline phosphatase) construct were used, in which the reporter expression is regulated by the NF-κB promoter upon stimulation for 24 hr. The reporter activity was determined using Quanti Blue kit (Invivogen, San Diego, Calif., USA) at a wavelength of 640 nm.
(§2) EC50 values were determined using Activity Base analysis (ID Business Solution, Limited).

human TLR8 = human TLR8 (Homo sapiens (Human), UniProt Q9NR97); test: HEK-Blue human TLR8 SEAP reporter assay; format: cell-based; details: HEK-Blue human TLR8 cells, NF-κB-regulated SEAP reporter, stimulation for 24 hr
Sequence of human TLR8 (Q9NR97 27-1041): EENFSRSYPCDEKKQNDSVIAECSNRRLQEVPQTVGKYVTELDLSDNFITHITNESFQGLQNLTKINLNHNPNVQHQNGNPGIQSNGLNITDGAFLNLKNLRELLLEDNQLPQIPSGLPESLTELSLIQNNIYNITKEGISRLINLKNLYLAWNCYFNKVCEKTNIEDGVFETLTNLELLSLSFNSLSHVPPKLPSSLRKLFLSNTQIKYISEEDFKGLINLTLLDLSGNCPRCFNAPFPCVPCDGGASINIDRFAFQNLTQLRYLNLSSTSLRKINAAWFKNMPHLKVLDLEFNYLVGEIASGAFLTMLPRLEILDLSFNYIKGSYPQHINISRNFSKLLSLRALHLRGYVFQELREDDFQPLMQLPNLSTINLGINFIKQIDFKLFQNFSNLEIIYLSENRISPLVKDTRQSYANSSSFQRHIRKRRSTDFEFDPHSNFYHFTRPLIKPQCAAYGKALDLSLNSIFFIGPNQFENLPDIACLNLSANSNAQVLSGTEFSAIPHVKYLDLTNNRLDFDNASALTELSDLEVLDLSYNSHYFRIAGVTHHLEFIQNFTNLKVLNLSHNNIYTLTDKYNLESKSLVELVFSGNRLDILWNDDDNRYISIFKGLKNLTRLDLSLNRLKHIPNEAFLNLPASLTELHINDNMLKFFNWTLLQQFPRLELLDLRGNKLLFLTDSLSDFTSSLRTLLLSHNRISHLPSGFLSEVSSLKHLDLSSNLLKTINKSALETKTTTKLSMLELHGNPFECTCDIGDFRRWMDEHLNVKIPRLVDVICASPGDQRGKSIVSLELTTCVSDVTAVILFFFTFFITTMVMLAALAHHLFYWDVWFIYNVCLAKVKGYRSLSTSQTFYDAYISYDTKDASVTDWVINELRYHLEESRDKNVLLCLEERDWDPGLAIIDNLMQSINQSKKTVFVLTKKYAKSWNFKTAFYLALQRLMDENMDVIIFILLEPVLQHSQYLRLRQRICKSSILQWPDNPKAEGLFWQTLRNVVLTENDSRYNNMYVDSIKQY
Procedure: as §1, §2

Sequence of human TLR7 (Q9NYK1 27-1049): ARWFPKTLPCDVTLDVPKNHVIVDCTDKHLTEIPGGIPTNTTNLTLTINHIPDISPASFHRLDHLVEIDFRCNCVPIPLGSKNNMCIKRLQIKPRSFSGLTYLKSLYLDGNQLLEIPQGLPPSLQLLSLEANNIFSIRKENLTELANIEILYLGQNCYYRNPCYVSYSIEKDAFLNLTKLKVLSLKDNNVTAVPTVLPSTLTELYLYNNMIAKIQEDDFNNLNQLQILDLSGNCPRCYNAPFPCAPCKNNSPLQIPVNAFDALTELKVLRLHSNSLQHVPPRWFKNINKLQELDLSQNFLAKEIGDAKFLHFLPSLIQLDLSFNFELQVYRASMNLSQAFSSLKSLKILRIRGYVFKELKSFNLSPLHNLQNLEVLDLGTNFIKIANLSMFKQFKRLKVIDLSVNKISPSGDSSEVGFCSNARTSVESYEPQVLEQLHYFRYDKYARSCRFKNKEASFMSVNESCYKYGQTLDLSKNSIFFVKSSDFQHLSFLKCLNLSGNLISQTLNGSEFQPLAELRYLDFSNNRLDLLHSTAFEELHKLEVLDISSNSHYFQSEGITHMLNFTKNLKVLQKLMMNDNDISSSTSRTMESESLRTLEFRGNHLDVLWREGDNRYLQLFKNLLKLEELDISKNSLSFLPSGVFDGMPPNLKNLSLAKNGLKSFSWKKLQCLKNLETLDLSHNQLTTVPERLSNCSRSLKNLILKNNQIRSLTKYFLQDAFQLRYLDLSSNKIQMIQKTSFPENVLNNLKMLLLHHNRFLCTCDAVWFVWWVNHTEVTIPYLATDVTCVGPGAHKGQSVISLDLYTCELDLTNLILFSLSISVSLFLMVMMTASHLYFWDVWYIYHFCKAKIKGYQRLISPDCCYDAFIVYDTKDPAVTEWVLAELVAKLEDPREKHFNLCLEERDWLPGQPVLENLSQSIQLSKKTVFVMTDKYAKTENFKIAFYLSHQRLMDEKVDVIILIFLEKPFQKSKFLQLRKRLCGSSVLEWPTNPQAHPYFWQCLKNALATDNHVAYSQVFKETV

`CCOCc1nc2c(N)nc3ccccc3c2n1CC(C)(C)OCCNC(C)=O` [Example 4, N-(2-(1-(4-Amino-2-(ethoxymethyl)-1H-imidazo[4,5-c]quinolin-1-yl)-2-methylpropan-2-yloxy)ethyl)acetamide] was tested, and the EC50 (human TLR7) was 27 nM.

`CCOCc1nc2c(N)nc3ccccc3c2n1CC(C)(C)OC(=O)CN` [Example 2, 1-(4-Amino-2-(ethoxymethyl)-1H-imidazo[4,5-c]quinolin-1-yl)-2-methylpropan-2-yl 2-aminoacetate] showed an EC50 (human TLR7) of 50 nM and an EC50 (human TLR8) of 80 nM.

With `CCOCc1nc2c(N)nc3ccccc3c2n1CCOCCN` [1-(2-(2-Aminoethoxy)ethyl)-2-(ethoxymethyl)-1H-imidazo[4,5-c]quinolin-4-amine, reference compound] the EC50 (human TLR7) was > 100000 nM, the “cellular potency at TLR7” value (human TLR7; statement in words, compared with resiquimod) was “do not show the required activity” and the EC50 (human TLR8) was 49000 nM.

`CCOCc1nc2c(N)nc3ccccc3c2n1CC(C)(C)OCCNC(=O)c1cccnc1` [Example 3, N-(2-(1-(4-Amino-2-(ethoxymethyl)-1H-imidazo[4,5-c]quinolin-1-yl)-2-methylpropan-2-yloxy)ethyl)nicotinamide] gave an EC50 (human TLR7) of 223 nM and an EC50 (human TLR8) of 35000 nM.

Work on `CCOCc1nc2c(N)nc3cc(CCC(=O)OCC)ccc3c2n1CC(C)(C)OCCN` [Example 8, Ethyl 3-(4-amino-1-(2-(2-aminoethoxy)-2-methylpropyl)-2-(ethoxymethyl)-1H-imidazo[4,5-c]quinolin-7-yl)propanoate hydrochloride] yielded an EC50 (human TLR7) of 134 nM and an EC50 (human TLR8) of 256 nM.

Compound `CCOCc1nc2c(N)nc3cc(Br)ccc3c2n1CC(C)(C)OCCN` [Example 11, 1-(2-(2-Aminoethoxy)-2-methylpropyl)-7-bromo-2-(ethoxymethyl)-1H-imidazo[4,5-c]quinolin-4-amine hydrochloride] has an EC50 (human TLR7) of 130 nM and an EC50 (human TLR8) of 2900 nM.

`CCOCc1nc2c(N)nc3cc(CCC(=O)OCC)ccc3c2n1CC(C)(C)OC(=O)CN` [Example 9, Ethyl 3-(4-amino-1-(2-(2-aminoacetoxy)-2-methylpropyl)-2-(ethoxymethyl)-1H-imidazo[4,5-c]quinolin-7-yl)propanoate] gave an EC50 (human TLR7) of 55 nM and an EC50 (human TLR8) of 54 nM.

`CCOCc1nc2c(N)nc3ccccc3c2n1CC(C)(C)OCCN` [Example 1, 1-(2-(2-Aminoethoxy)-2-methylpropyl)-2-(ethoxymethyl)-1H-imidazo[4,5-c]quinolin-4-amine] was tested, and the EC50 (human TLR7) was 60 nM and the EC50 (human TLR8) was 580 nM.

`CCOCc1nc2c(N)nc3ccccc3c2n1CC(C)(C)OCCNC(=O)CCCCCNC(=O)OC(C)(C)C` [Example 6, tert-Butyl 6-(2-(1-(4-amino-2-(ethoxymethyl)-1H-imidazo[4,5-c]quinolin-1-yl)-2-methylpropan-2-yloxy)ethylamino)-6-oxohexylcarbamate] showed an EC50 (human TLR7) of 195 nM and an EC50 (human TLR8) of 2900 nM.

In the case of `CCOCc1nc2c(N)nc3ccccc3c2n1CC(C)(C)OCCNCCCO` [Example 5, 3-(2-(1-(4-Amino-2-(ethoxymethyl)-1H-imidazo[4,5-c]quinolin-1-yl)-2-methylpropan-2-yloxy)ethylamino)propan-1-ol], the EC50 (human TLR7) is reported as 900 nM and the EC50 (human TLR8) is reported as 10500 nM.

Work on `CCOCc1nc2c(N)nc3cc(/C=C/C(=O)OCC)ccc3c2n1CC(C)(C)OCCN` [Example 7, (E)-Ethyl 3-(4-amino-1-(2-(2-aminoethoxy)-2-methylpropyl)-2-(ethoxymethyl)-1H-imidazo[4,5-c]quinolin-7-yl)acrylate] yielded an EC50 (human TLR7) of 139 nM and an EC50 (human TLR8) of 1080 nM.

For `CCCCCc1nc2c(N)nc3ccccc3c2n1CC(C)(C)OCCN` [Example 10, 1-(2-(2-Aminoethoxy)-2-methylpropyl)-2-pentyl-1H-imidazo[4,5-c]quinolin-4-amine], the EC50 (human TLR7) was 152 nM and the EC50 (human TLR8) was 2700 nM.
